Experimental data as given in patent US20250236616A1, “IMMUNOMODULATING AZALIDES” (Zoetis Services LLC, priority 2021, published 2025).
Where two headings read alike, the source gives them in different places. Marks after values point to notes of the source that are not given here.

What was measured:
Type in all cases: cell-based
IL-1β = assay: Whole bovine blood assay, LPS-induced IL-1β (inhibition / overstimulation); conditions: drug concentration giving overstimulation (OS) of LPS-induced IL-1β, top concentration 250 μM
Method in brief: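 IL-1β was quantified by MSD U-Plex chemiluminescence in plasma and normalized to BCA total protein. Bovine blood was pretreated 4 h at 37 °C with compound dilutions before 18 h LPS challenge (1 μg/mL final). Rising IL-1β at high concentrations was recorded as overstimulation.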

[1] = tested on: BRD pathogens, M. haemolytica and P. multocida; assay: MIC screening panel, BRD pathogens (CLSI broth micro-dilution)
Source text: Primary screening of the compounds of the invention included the evaluation of antibacterial activity of analogs through determination of microbial inhibition concentration (MIC) as per CLSI guidelines. The screening panel included the relevant BRD pathogens: 1) M. haemolytica (e.g., 12726, 46571 and 49023, all AHDRCC; and 33396 (ATCC)); and 2) P. multocida (e.g., 34135 and 46572 (both AHDRCC) and 43137 (ATCC)). In some instances, H. somni (A700025K) pathogens were also included in the screening panel. The AHDRCC strains originated from the Zoetis BRD/SRD surveillance program and refer to the Animal Health Development and Research Culture Collection. In addition, the screen assessed S. aureus (29213 ATCC) as a representative Gram-positive isolate, E.faecalis (19433 ATCC) as a commensal gram-positive gastrointestinal bacterium and E. coli (100, 3110 and 25922 (ATCC)) for the evaluation of efflux potential. The screening panel BRD pathogens were assessed in determining antibacterial activity of the Formula (1) compounds.
All relevant BRD pathogens were initially screened at a top concentration of 64 μg/mL of a Formula (1) compound in an eleven-point dilution series. […] If an Example was purified further, the MICs moved […] essentially two dilutions across all strains tested in the screening panel.
In-Vitro MIC Model Compounds were analyzed for antibacterial activity against a panel of animal health specific gram-positive and gram-negative clinical strains by diluting compounds in DMSO to an appropriate stock concentration to determine the Minimal Inhibitory Concentration (MIC) via a semi-automated broth micro-dilution method (CLSI reference method) with QC strains and anti-microbial agent(s). Specifically, bacteria were grown overnight on TSA w/5% sheep blood agar plates and diluted in saline buffer to a McFarland Standard 0.5, then further diluted in cation-ion adjusted Mueller Hinton Broth to a final concentration of approximately 5×10^5 CFU/mL. 100 μL of inoculated media was added to 96-well plate(s) with 3 μL of serially diluted compound in each row. Depending on strain (see CLSI reference method), bacteria were incubated 18-22 hours at 35-37° C. in ambient air, with 5% CO2 or anaerobically (up to 48 hours).

TNF-α = assay: Whole bovine blood assay, LPS-induced TNF-α; conditions: fresh whole bovine blood, LPS stimulant, top drug concentration 250 μM
Method in brief: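 Fresh heparinized bovine whole blood was preincubated with compound 4 h at 37 °C, then stimulated with LPS (final 1 μg/mL) for 18 h at 37 °C. Plasma TNF-α was quantified by MSD U-Plex chemiluminescent immunoassay, normalized to total protein (BCA), and IC50 taken for LPS-induced TNF-α inhibition.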

IL-6 = assay: Whole bovine blood assay, LPS-induced IL-6; conditions: fresh whole bovine blood, LPS stimulant, top drug concentration 250 μM
[2] = Table B, at least one BRD pathogenic strain, top concentration 64 μg/mL, read-out: MIC flag (*) for BRD pathogenic strains
[3] = Table C, at least one BRD pathogenic strain, top concentration 64 μg/mL

| Compound | minimal effective concentration (IL-1β; Bos taurus, 18 h) | IC50 (TNF-α; Bos taurus) | IC50 (IL-6; Bos taurus) | minimal effective concentration (IL-1β) | MIC flag (*) for BRD pathogenic strains [1, 3] | IC50 (TNF-α) | IC50 (IL-6) | also measured |
| --- | --- | --- | --- | --- | --- | --- | --- | --- |
| CCCNC[C@]1(O)[C@H](C)O[C@@H](O[C@H]2[C@H](C)[C@@H](O[C@@H]3O[C@H](C)C[C@H](N(C)S(=O)(=O)c4cccnc4)[C@H]3O)[C@](C)(O)C[C@@H](C)CN[C@H](C)[C@@H](O)[C@](C)(O)[C@@H](CC)OC(=O)[C@@H]2C)C[C@@]1(C)OC [Example B-12, N-((2S,3R,4S,6R)-2-(((2R,3S,4R,5R,8R,10R,11R,12S, 13S,14R)-2-ethyl-3,4,10-trihydroxy-13-(((2R,4R,5S,6S)-5-hydroxy-4-methoxy-4,6-dimethyl-5-((propylamino)methyl)tetrahydro-2H-pyran-2-yl)oxy)-3,5,8,10,12,14-hexamethyl-15-oxo-1-oxa-6-azacyclopentadecan-11-yl)oxy)-3-hydroxy-6-methyltetrahydro-2H-pyran-4-yl)-N-methylpyridine-3-sulfonamide] | > 250 µM | – | – | – | – | – | – | MIC [1, 2]: ≤ 64 µg/mL |
| CCCNC[C@]1(O)[C@H](C)OC(O[C@H]2[C@H](C)[C@@H](O[C@@H]3O[C@H](C)C[C@H](N(C)S(=O)(=O)c4cc(Br)c(Br)s4)[C@H]3Oc3ccc(OC)cc3)[C@](C)(O)C[C@@H](C)CN[C@H](C)[C@@H](O)[C@](C)(O)[C@@H](CC)OC(=O)[C@@H]2C)C[C@@]1(C)OC (stereo partly drawn) [Example B-105, 4,5-dibromo-N-[(2S,3R,4S,6R)-2-[[(2R,3S,4R,5R,8R,10R,11R, 12S, 13S, 14R)-2-ethyl-3,4, 10-trihydroxy-13-[(4R,5S,6S)-5-hydroxy-4-methoxy-4,6-dimethyl-5-(propylaminomethyl)oxan-2-yl]oxy-3,5,8, 10, 12,14-hexamethyl-15-oxo-1-oxa-6-azacyclopentadec-11-yl]oxy]-3-(4-methoxyphenoxy)-6-methyloxan-4-yl]-N-methylthiophene-2-sulfonamide] | 3 µM | 12 µM | 7 µM | – | – | – | – | MIC [1, 2]: ≤ 64 µg/mL |
| (2R,3S,4R,5R,8R,10R,11R, 12S, 13S, 14R)-2-ethyl-11-[(2R,3S,4R,6S)-4-[(3-fluorophenyl) sulfamoyl-methylamino]-3-hydroxy-6-methyloxan-2-yl]oxy-3,4, 10-trihydroxy-13-[(2R,4R,5S,6S)-5-hydroxy-4-methoxy-4,6-dimethyl-5-(piperidin-1-ylmethyl)-oxan-2-yl]oxy-3,5,8,10, 12,14-hexamethyl-15-oxo-1-oxa-6-azacyclopentadecane [Example C-24] | – | – | – | 3 µM | C-24* (MIC ≤64 μg/mL for at least one BRD pathogenic strain) | 16 µM | 25 µM | – |
| CC(=O)O.CC[C@H]1OC(=O)[C@H](C)[C@@H](O[C@H]2C[C@@](C)(OC)[C@](O)(CN3CCCCC3)[C@H](C)O2)[C@H](C)[C@@H](O[C@@H]2O[C@H](C)C[C@H](N(C)S(=O)(=O)Nc3ccc(C(F)(F)F)cc3)[C@H]2O)[C@](C)(O)C[C@@H](C)CN(C)[C@H](C)[C@@H](O)[C@]1(C)O [Example C-57, (2R,3S,4R,5R,8R,10R,11R,12S,13S,14R)-2-ethyl-3,4, 10-trihydroxy-13-[(2R,4R,5S,6S)-5-hydroxy-4-methoxy-4,6-dimethyl-5-(piperidin-1-ylmethyl)oxan-2-yl]oxy-11-[(2S,3R,4S,6R)-3-hydroxy-6-methyl-4-[methyl-[[4-(trifluoromethyl)phenyl]sulfamoyl]amino]oxan-2-yl]oxy-3,5,6,8, 10, 12, 14-heptamethyl-15-oxo-1-oxa-6-azacyclopentadecane, acetic acid] | – | – | – | 16 µM | C-57* (MIC ≤64 μg/mL for at least one BRD pathogenic strain) | 6 µM | 9 µM | – |
| CC[C@H]1OC(=O)[C@H](C)[C@@H](OC2CC(C)(OC)C(O)(CN3CCCCC3)[C@@H](C)O2)[C@H](C)[C@@H](O[C@@H]2O[C@H](C)C[C@H](N(C)S(=O)(=O)c3ccc(Cl)cc3)[C@H]2O)[C@](C)(O)C[C@@H](C)CN(C)[C@H](C)[C@@H](O)[C@]1(C)O (stereo partly drawn) [Example C-38, 4-chloro-N-((2S,3R,4S,6R)-2-(((2R,3S,4R,5R,8R,10R,11R,12S,13S,14R)-2-ethyl-3,4,10-trihydroxy-13-(((6R)-5-hydroxy-4-methoxy-4,6-dimethyl-5-(piperidin-1-ylmethyl)tetrahydro-2H-pyran-2-yl)oxy)-3,5,6,8, 10, 12, 14-heptamethyl-15-oxo-1-oxa-6-azacyclopentadecan-11-yl)oxy)-3-hydroxy-6-methyltetrahydro-2H-pyran-4-yl)-N-methylbenzenesulfonamide] | 28 µM | 9 µM | 4 µM | – | – | – | – | MIC ([1]; Table C, at least one BRD pathogenic strain, top concentration 64 μg/mL, read-out: MIC flag (*) for BRD pathogenic strains): ≤ 64 µg/mL |
| CC(=O)O.CCCN1C[C@H](C)C[C@@](C)(O)[C@H](O[C@@H]2O[C@H](C)C[C@H](N(C)S(=O)(=O)Nc3ccc(C(F)(F)F)cc3)[C@H]2O)[C@@H](C)[C@H](O[C@H]2C[C@@](C)(OC)[C@](O)(CN3CCCCC3)[C@H](C)O2)[C@@H](C)C(=O)O[C@H](CC)[C@@](C)(O)[C@H](O)[C@H]1C [Example C-58, (2R,3S,4R,5R,8R,10R,11R,12S,13S,14R)-2-ethyl-3,4,10-trihydroxy-13-[(2R,4R,5S,6S)-5-hydroxy-4-methoxy-4,6-dimethyl-5-(piperidin-1-ylmethyl)oxan-2-yl]oxy-11-[(2S,3R,4S,6R)-3-hydroxy-6-methyl-4-[methyl-[[4-(trifluoromethyl)phenyl]sulfamoyl]amino]oxan-2-yl]oxy-3,5,8, 10, 12,14-hexamethyl-15-oxo-6-propyl-1-oxa-6-azacyclopentadecane, acetic acid] | – | – | – | 12 µM | C-58* (MIC ≤64 μg/mL for at least one BRD pathogenic strain) | 9 µM | 13 µM | – |
| CC[C@H]1OC(=O)[C@H](C)[C@@H](O[C@H]2C[C@@](C)(OC)[C@](O)(CCl)[C@H](C)O2)[C@H](C)[C@@H](O[C@@H]2O[C@H](C)C[C@H](N(C)S(=O)(=O)c3ccc(Cl)cc3)[C@H]2O)[C@](C)(O)C[C@@H](C)CN[C@H](C)[C@@H](O)[C@]1(C)O [Example A4-1, 4-chloro-N-((2S,3R,4S,6R)-2-(((2R,3S,4R,5R,8R,10R,11R,12S,13S,14R)-13-(((2R,4R,5S,6S)-5-(chloromethyl)-5-hydroxy-4-methoxy-4,6-dimethyltetrahydro-2H-pyran-2-yl)oxy)-2-ethyl-3,4,10-trihydroxy-3,5,8,10,12,14-hexamethyl-15-oxo-1-oxa-6-azacyclopentadecan-11-yl)oxy)-3-hydroxy-6-methyltetrahydro-2H-pyran-4-yl)-N-methylbenzenesulfonamide] | 12 µM | 44 µM | 26 µM | – | – | – | – | MIC ([1]; BRD pathogens M. haemolytica and P. multocida, read-out: antibacterial / non-antibacterial (MIC class)): > 64 µg/mL |
| (2R,3S,4R,5R,8R,10R,11R,12S,13S,14R)-2-ethyl-3,4,10-trihydroxy-13-[(2R,4R,5S,6S)-5-hydroxy-4-methoxy-4,6-dimethyl-5-[(3,3,3-trifluoropropylamino)methyl]oxan-2-yl]oxy-11-[(2S,3R,4S,6R)-3-hydroxy-6-methyl-4-[methyl-[[4-(trifluoromethyl)phenyl]sulfamoyl]amino]oxan-2-yl]oxy-3,5,8, 10, 12,14-hexamethyl-15-oxo-1-oxa-6-azacyclopentadecane [Example B-65] | – | – | – | 6 µM | – | 9 µM | 15 µM | MIC flag (*) for BRD pathogenic strains ([1]; Table B, at least one BRD pathogenic strain, top concentration 64 μg/mL): B-65* (MIC ≤64 μg/mL for at least one BRD pathogenic strain) |
